Experimental data: the NIST ThermoML archive (doi:10.1016/j.jct.2018.02.013)
± gives the expanded uncertainty stated by the source.

Columns and labels:
[1] = wn = mass fraction of the nth substance listed; conditions: 101 kPa, Liquid; for mass density: Vibrating tube method; for viscosity: Cone and plate viscometry; for electrical conductivity: Direct current cell with electrodes; for thermal conductivity: transient hot wire
[2] = molar heat capacity at constant pressure; wn = mass fraction of the nth substance listed; conditions: 101 kPa, Liquid, Small sample (50 mg) DSC

CCCCCCCC(=O)[O-].CCCCCCCCCCCCCC[P+](CCCCCC)(CCCCCC)CCCCCC [trihexyl(tetradecyl)phosphonium octanoate] + O
w2 = 0.1478
Conditions	electrical conductivity [S/m]	mass density [kg/m3]	molar heat capacity at constant pressure [J/K/mol]	thermal conductivity [W/m/K]	viscosity [mPa·s]
[1], 298.15 K	–	901.5 ± 1.9	–	–	–
[1], 298.2 K	–	–	–	–	82.71 ± 5.1
[1], 299 K	0.0415 ± 0.0018	–	–	–	–
[1], 299.13 K	–	–	–	0.1872 ± 0.0083	–
[1], 303.15 K	–	898.1 ± 1.9	–	–	–
[1], 303.2 K	–	–	–	–	70.08 ± 4.3
[1], 304.4 K	0.051 ± 0.0022	–	–	–	–
[1], 307.9 K	–	–	–	0.1852 ± 0.0087	–
[1], 308.2 K	–	–	–	–	58.36 ± 3.6
[1], 308.8 K	0.0603 ± 0.0026	–	–	–	–
[1], 313.15 K	–	891.3 ± 1.9	–	–	–
[1], 313.2 K	–	–	–	–	48.63 ± 3
[1], 313.6 K	0.0724 ± 0.0031	–	–	–	–
[1], 318.01 K	–	–	–	0.1831 ± 0.0095	–
[1], 318.2 K	0.0882 ± 0.0037	–	–	–	41.34 ± 2.5
[1], 323.15 K	–	884.7 ± 1.8	–	–	–
[1], 323.2 K	–	–	–	–	35.7 ± 2.2
[1], 323.8 K	0.101 ± 0.0042	–	–	–	–
[1], 327.85 K	–	–	–	0.1821 ± 0.01	–
[1], 328.2 K	–	–	–	–	30.82 ± 1.9
[1], 328.6 K	0.119 ± 0.005	–	–	–	–
[1], 333.15 K	–	877.7 ± 1.8	–	–	–
[1], 333.2 K	–	–	–	–	26.32 ± 1.6
[1], 333.4 K	0.139 ± 0.0058	–	–	–	–
[1], 337.66 K	–	–	–	0.1801 ± 0.0099	–
[1], 338.1 K	0.164 ± 0.0068	–	–	–	–
[1], 338.2 K	–	–	–	–	22.53 ± 1.4
[1], 343.15 K	–	870.8 ± 1.8	–	–	–
[1], 343.2 K	–	–	–	–	19.93 ± 1.2
[1], 343.5 K	0.182 ± 0.0075	–	–	–	–
[1], 347.48 K	–	–	–	0.1791 ± 0.01	–
[1], 348.2 K	–	–	–	–	17.29 ± 1.1
[1], 349.7 K	0.215 ± 0.0089	–	–	–	–
[1], 353.15 K	–	863.8 ± 1.8	–	–	–
[1], 353.2 K	–	–	–	–	15.03 ± 0.92
[1], 358 K	–	–	–	0.1771 ± 0.012	–
[1], 358.2 K	–	–	–	–	13.44 ± 0.82
[1], 363.15 K	–	857.1 ± 1.8	–	–	–
[1], 363.2 K	–	–	–	–	11.86 ± 0.72
[1], 368.2 K	–	–	–	–	10.87 ± 0.66
[2], 298.15 K	–	–	319.61 ± 20	–	–
[2], 303.15 K	–	–	322.43 ± 20	–	–
[2], 308.15 K	–	–	325.15 ± 20	–	–
[2], 313.15 K	–	–	326.51 ± 20	–	–
[2], 318.15 K	–	–	329.23 ± 20	–	–
[2], 323.15 K	–	–	332.16 ± 20	–	–
[2], 328.15 K	–	–	335.5 ± 21	–	–
[2], 333.15 K	–	–	338.32 ± 21	–	–
[2], 338.15 K	–	–	340.52 ± 21	–	–
[2], 343.15 K	–	–	342.51 ± 21	–	–
[2], 348.15 K	–	–	345.96 ± 21	–	–
[2], 353.15 K	–	–	350.45 ± 22	–	–
[2], 358.15 K	–	–	353.8 ± 22	–	–
[2], 363.15 K	–	–	358.19 ± 22	–	–

CCCCCCCCCC(=O)[O-].CCCCCCCCCCCCCC[P+](CCCCCC)(CCCCCC)CCCCCC [trihexyltetradecylphosphonium decanoate] + O
w2 = 0.1415
Conditions	electrical conductivity [S/m]	mass density [kg/m3]	molar heat capacity at constant pressure [J/K/mol]	thermal conductivity [W/m/K]	viscosity [mPa·s]
[1], 298.15 K	–	899.1 ± 1.9	–	–	–
[1], 298.2 K	–	–	–	–	91.87 ± 5.7
[1], 298.55 K	–	–	–	0.1861 ± 0.0089	–
[1], 299.2 K	0.03 ± 0.0014	–	–	–	–
[1], 303.15 K	–	895.8 ± 1.9	–	–	–
[1], 303.2 K	–	–	–	–	76.66 ± 4.7
[1], 303.6 K	0.0369 ± 0.0016	–	–	–	–
[1], 307.51 K	–	–	–	0.1849 ± 0.0085	–
[1], 308.2 K	–	–	–	–	64.23 ± 3.9
[1], 308.8 K	0.0436 ± 0.0019	–	–	–	–
[1], 313.15 K	–	889 ± 1.9	–	–	–
[1], 313.2 K	0.0524 ± 0.0022	–	–	–	53.34 ± 3.3
[1], 317.84 K	–	–	–	0.1829 ± 0.0095	–
[1], 318.2 K	–	–	–	–	45 ± 2.8
[1], 318.8 K	0.0639 ± 0.0027	–	–	–	–
[1], 323.15 K	–	882.3 ± 1.8	–	–	–
[1], 323.2 K	–	–	–	–	37.98 ± 2.3
[1], 323.6 K	0.0733 ± 0.0031	–	–	–	–
[1], 328.2 K	–	–	–	–	32.86 ± 2
[1], 328.68 K	–	–	–	0.1809 ± 0.01	–
[1], 328.8 K	0.0865 ± 0.0036	–	–	–	–
[1], 333.15 K	–	875.4 ± 1.8	–	–	–
[1], 333.2 K	0.1 ± 0.0042	–	–	–	28.28 ± 1.7
[1], 337.66 K	–	–	–	0.1799 ± 0.0099	–
[1], 338.2 K	–	–	–	–	24.62 ± 1.5
[1], 338.8 K	0.118 ± 0.0049	–	–	–	–
[1], 343.15 K	–	868.2 ± 1.8	–	–	–
[1], 343.2 K	–	–	–	–	21.4 ± 1.3
[1], 343.8 K	0.132 ± 0.0055	–	–	–	–
[1], 347.13 K	–	–	–	0.1785 ± 0.011	–
[1], 348.2 K	–	–	–	–	18.91 ± 1.1
[1], 348.9 K	0.156 ± 0.0065	–	–	–	–
[1], 353.15 K	–	860.8 ± 1.8	–	–	–
[1], 353.2 K	–	–	–	–	17.1 ± 1
[1], 358.2 K	–	–	–	0.1762 ± 0.01	15.4 ± 0.94
[1], 363.15 K	–	853.7 ± 1.8	–	–	–
[1], 363.2 K	–	–	–	–	13.95 ± 0.85
[1], 368.2 K	–	–	–	–	12.08 ± 0.74
[2], 298.15 K	–	–	313.81 ± 19	–	–
[2], 303.15 K	–	–	319.48 ± 20	–	–
[2], 308.15 K	–	–	323.73 ± 20	–	–
[2], 313.15 K	–	–	326.79 ± 20	–	–
[2], 318.15 K	–	–	328.54 ± 20	–	–
[2], 323.15 K	–	–	332.14 ± 21	–	–
[2], 328.15 K	–	–	335.3 ± 21	–	–
[2], 333.15 K	–	–	338.57 ± 21	–	–
[2], 338.15 K	–	–	341.41 ± 21	–	–
[2], 343.15 K	–	–	344.47 ± 21	–	–
[2], 348.15 K	–	–	348.72 ± 21	–	–
[2], 353.15 K	–	–	351.99 ± 22	–	–
[2], 358.15 K	–	–	355.6 ± 22	–	–
[2], 363.15 K	–	–	360.72 ± 22	–	–
